Measurements reported in the supplement of paper PMC3493320.
Where “and” joins values, the source holds several entries; their conditions need not be identical. Equal values may be shown once.

Columns and labels:
[1] = system: NCI-H295R; experiment: IC50 (antiproliferative, ATP content); conditions: 48 h
[2] = system: NCI-H295R; experiment: maximal response (efficacy) relative to DMSO (0%) and doxorubicin (-100%); higher = less growth inhibition; conditions: 48 h

| SMILES | IC50 [1] | maximal response [2] |
| --- | --- | --- |
| CC[C@@H](C(=O)O)[C@@H]1O[C@@H]([C@@H](C)[C@H](O)[C@H](C)C(=O)[C@H](CC)[C@H]2O[C@]3(C=C[C@@H](O)[C@]4(CC[C@@](C)([C@H]5CC[C@](O)(CC)[C@H](C)O5)O4)O3)[C@H](C)C[C@@H]2C)[C@@H](C)C[C@@H]1C | 5.31 µM | -140% |
| Cc1cc(C(C#N)c2ccc(Cl)cc2)c(Cl)cc1NC(=O)c1cc(I)cc(I)c1O (stereo unspecified) | 4.22 µM | -130% |
| CC(C)=CCOc1ccc(C=CC(=O)c2ccc(OCC=C(C)C)cc2OCC(=O)O)cc1 | 23.7 µM | -145% |
| OC[C@@]([C@@](C[C@@H](C4=C(C(C(C2=C(C=CC=C23)OC)=O)=C(C(O)=C4C5)C3=O)O)O[C@H](O1)C[C@@H]([C@@H]([C@@H]1C)O)N)5O)=O.Cl | 11.9 µM | -102% |
| CCOc1nc2cccc(C(=O)O)c2n1Cc1ccc(-c2ccccc2-c2nnn[nH]2)cc1 | 15 µM | -145% |
| [Cl-].[Cl-].[Hg+2] | 11.9 µM | -127% |
| CC(=O)[O][Hg][c]1ccccc1 | 2.99 µM | -126% |
| O.O.[Na+].[Na+].[O]=[Cr](=[O])([O-])[O][Cr](=[O])(=[O])[O-] | 11.9 µM | -147% |
| C/C=C(/C(=C/C)c1ccc(O)cc1)c1ccc(O)cc1 | 4.53 µM | -68.5% |
| CCN(CC)CCNc1ccc(CO)c2sc3ccccc3c(=O)c12 | 7.5 µM | -124% |
| CCCCCCCCCCC[C@@H](C[C@@H]1OC(=O)[C@H]1CCCCCC)OC(=O)C(CC(C)C)NC=O (stereo partly specified) | 9.44 µM | -66.3% |
| O=c1c(-c2ccccc2)c1-c1ccccc1 | 18.8 µM | -142% |
| CN(C)c1ccc2nc3ccc(N(C)C)cc3[s+]c2c1.[Cl-] | 15 µM | -109% |
| CCCCCCCC/C=C\CCCCCCCC(=O)NCc1ccc(O)c(OC)c1 | 8.41 µM | -122% |
| CC(C)(C)c1cc(O)ccc1O | 16.8 µM | -139% |
| O=C(Nc1ccc(Br)cc1)c1cc(Br)cc(Br)c1O | 5.31 µM | -118% |
| Oc1c(Cl)cc(Cl)c2cccnc12 | 5.31 µM | -105% |
| CC(=O)[C@]1(O)Cc2c(O)c3c(c(O)c2[C@@H](O[C@H]2C[C@H](N)[C@H](O)[C@H](C)O2)C1)C(=O)c1c(O)cccc1C3=O | 1.19 µM and 1.88 µM | -123% and -125% |
| COc1cc2c(cc1O)CCN[C@]21CS[C@@H]2c3c(OC(C)=O)c(C)c4c(c3[C@H](COC1=O)N1[C@@H]2[C@H]2c3c(cc(C)c(OC)c3O)C[C@@H]([C@@H]1O)N2C)OCO4 | 0.0094 µM | -117% |

| SMILES | IC50 [1] | maximal response [2] |
| --- | --- | --- |
| Nc1nc2nc[nH]c2c(=S)[nH]1 | 1.06 µM | -74.1% |
| CN(Cc1cnc2nc(N)nc(N)c2n1)c1ccc(C(=O)N[C@@H](CCC(=O)O)C(=O)O)cc1 | 0.0188 µM | -74.9% |
| COc1cc(-c2ccc(-[n+]3nc(-c4ccccc4)nn3-c3ccc([N+](=O)[O-])cc3)c(OC)c2)ccc1-[n+]1nc(-c2ccccc2)nn1-c1ccc([N+](=O)[O-])cc1.[Cl-].[Cl-] | 10.6 µM | -132% |
| O=C1C(=O)c2ncccc2-c2cccnc21 | 3.76 µM | -63% |
| Cl.Cl.Fc1ccc(C(OCCN2CCN(CCCc3ccccc3)CC2)c2ccc(F)cc2)cc1 | 23.7 µM | -154% |
| Cc1cc(-c2ccc(N=Nc3c(S(=O)(=O)[O-])cc4cc(S(=O)(=O)[O-])cc(N)c4c3O)c(C)c2)ccc1N=Nc1c(S(=O)(=O)[O-])cc2cc(S(=O)(=O)[O-])cc(N)c2c1O.[Na+].[Na+].[Na+].[Na+] | 11.9 µM | -131% |
| Oc1cccc[c]1[Hg][Cl] | 2.66 µM | -130% |
| NC(C(C)=C2)=CC=C2/C(C1=CC=C(N)C=C1)=C3/C=CC(C=C3)=N.Cl | 11.9 µM | -87.4% |
| OB(O)[O][Hg][c]1ccccc1 | 3.76 µM | -130% |
| Oc1c(Cl)cc(Cl)cc1Sc1cc(Cl)cc(Cl)c1O | 13.3 µM | -137% |
| CCN(CC)CCCN(c1ccccc1)C1Cc2ccccc2C1.Cl | 16.8 µM | -138% |
| CC[C@H]1CN2CCc3cc(OC)c(OC)cc3[C@@H]2C[C@@H]1C[C@H]1NCCc2cc(OC)c(OC)cc21 | 2.11 µM | -130% |
| Clc1ccc(COC(Cn2ccnc2)c2ccc(Cl)cc2Cl)cc1.O=[N+]([O-])O (stereo unspecified) | 26.6 µM | -149% |
| [O-]S(C1=C(O)C(\C(C4=CC=C(N(C)C)C=C4)=C(C=C2)/C=C/C2=[N+](C)\C)=C(C=C3)C(C=C3S([O-])(=O)=O)=C1)(=O)=O.[Na+] | 11.9 µM | -103% |
| COc1cc2c(cc1OC)-c1c/c(=N\c3c(C)cc(C)cc3C)n(C)c(=O)n1CC2.Cl | 21.1 µM | -149% |
| O=C\1OC/C(=C/1)[C@H]2CC[C@@]8(O)[C@]2(C)[C@H](O)C[C@H]3[C@H]8CC[C@@H]4C[C@H](CC[C@]34C)O[C@@H]7O[C@H](C)[C@@H](O[C@H]6C[C@H](O)[C@H](O[C@H]5C[C@H](O)[C@H](O)[C@@H](C)O5)[C@@H](C)O6)[C@@H](O)C7 | 0.188 µM | -111% |
| CC1=CC(=O)c2ccccc2C1=O | 23.7 µM | -158% |
| CCCCCCCCCCCCCCCCOCCOCCOCCOCCOCCOCCOCCOCCOCCOCCOCCOCCOCCOCCOCCOCCOCCOCCOCCOCCO | 13.3 µM | -124% |
| Nc1ccc2cc3ccc(N)cc3nc2c1.Nc1ccc2cc3ccc(N)cc3nc2c1.O=S(=O)(O)O | 18.8 µM | -138% |
